Test results from PubChem BioAssay AID2060497 (Molecular Pharmacology Branch, DTP, NCI, 2025).

System: 317291-083-R-J1-PDC complex spheroids, viability
Experiment: Anticancer human tumor 317291-083-R-J1-PDC patient-derived soft tissue sarcoma cell line growth inhibition [GQUAD]
Details: for IC50: curve of first compound; for viability, T/C: stronger effect = lower value
Procedure, shortened: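 Multi-cell-type spheroids of tumor cells with HUVEC and mesenchymal stem cells, treated with drug combinations. Concentrations descend in half-log steps from near clinical Cmax, or from 10 microM where Cmax is unknown; viability read-out.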

[1] = second compound 0.0316 µM, first compound 0.0316 µM
[2] = second compound 0.0316 µM, first compound 0.1 µM
[3] = second compound 0.0316 µM, first compound 0.316 µM
[4] = second compound 0.0316 µM, first compound 1 µM
[5] = second compound 0.0316 µM, first compound 3.16 µM
[6] = second compound 0.0316 µM, first compound 10 µM
[7] = second compound 0.1 µM, first compound 0.0316 µM
[8] = second compound 0.1 µM, first compound 0.1 µM
[9] = second compound 0.1 µM, first compound 0.316 µM
[10] = second compound 0.1 µM, first compound 1 µM
[11] = second compound 0.1 µM, first compound 3.16 µM
[12] = second compound 0.1 µM, first compound 10 µM
[13] = second compound 0.316 µM, first compound 0.0316 µM
[14] = second compound 0.316 µM, first compound 0.1 µM
[15] = second compound 0.316 µM, first compound 0.316 µM
[16] = second compound 0.316 µM, first compound 1 µM
[17] = second compound 0.316 µM, first compound 3.16 µM
[18] = second compound 0.316 µM, first compound 10 µM
[19] = second compound 1 µM, first compound 0.0316 µM
[20] = second compound 1 µM, first compound 0.1 µM
[21] = second compound 1 µM, first compound 0.316 µM
[22] = second compound 1 µM, first compound 1 µM
[23] = second compound 1 µM, first compound 3.16 µM
[24] = second compound 1 µM, first compound 10 µM
[25] = second compound 3.16 µM, first compound 0.0316 µM
[26] = second compound 3.16 µM, first compound 0.1 µM
[27] = second compound 3.16 µM, first compound 0.316 µM
[28] = second compound 3.16 µM, first compound 1 µM
[29] = second compound 3.16 µM, first compound 3.16 µM
[30] = second compound 3.16 µM, first compound 10 µM
[31] = second compound 10 µM, first compound 0.0316 µM
[32] = second compound 10 µM, first compound 0.1 µM
[33] = second compound 10 µM, first compound 0.316 µM
[34] = second compound 10 µM, first compound 1 µM
[35] = second compound 10 µM, first compound 3.16 µM
[36] = second compound 10 µM, first compound 10 µM
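Also: spheroids exposed to compounds for one week before readout.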
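For viability, T/C in this document: percent viability relative to DMSO vehicle wells taken as 100%.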

## CC1COCCN1c1cc(C2(S(C)(=N)=O)CC2)nc(-c2ccnc3[nH]ccc23)n1 (stereo not drawn) + Cc1[nH]c2ccc(F)cc2c1-c1nc2c3cccnc3c3ncccc3c2[nH]1
Second compound 0.0316 µM
  IC50: 1.53 µM
Second compound 0.1 µM
  IC50: 1.32 µM
Second compound 0.316 µM
  IC50: 1.35 µM
Second compound 1 µM
  IC50: 1.21 µM
Second compound 3.16 µM
  IC50: 0.792 µM
Second compound 10 µM
  IC50: 0.613 µM
[1]
  viability, T/C: 109%
[2]
  viability, T/C: 112%
[3]
  viability, T/C: 90.5%
[4]
  viability, T/C: 64%
[5]
  viability, T/C: 27.9%
[6]
  viability, T/C: 15.4%
[7]
  viability, T/C: 93.3%
[8]
  viability, T/C: 93.9%
[9]
  viability, T/C: 85.8%
[10]
  viability, T/C: 57.7%
[11]
  viability, T/C: 25.2%
[12]
  viability, T/C: 13.2%
[13]
  viability, T/C: 91.5%
[14]
  viability, T/C: 98.6%
[15]
  viability, T/C: 88.7%
[16]
  viability, T/C: 59%
[17]
  viability, T/C: 24.3%
[18]
  viability, T/C: 14.7%
[19]
  viability, T/C: 101%
[20]
  viability, T/C: 97.5%
[21]
  viability, T/C: 97.3%
[22]
  viability, T/C: 54.8%
[23]
  viability, T/C: 22.1%
[24]
  viability, T/C: 11.3%
[25]
  viability, T/C: 84%
[26]
  viability, T/C: 82.8%
[27]
  viability, T/C: 78%
[28]
  viability, T/C: 42.5%
[29]
  viability, T/C: 17.7%
[30]
  viability, T/C: 11%
[31]
  viability, T/C: 53%
[32]
  viability, T/C: 61.5%
[33]
  viability, T/C: 86.4%
[34]
  viability, T/C: 37.4%
[35]
  viability, T/C: 16.8%
[36]
  viability, T/C: 8.56%

## COc1ccc([C@@H](O)c2cc(-c3ncnc4cc(N5CCOCC5)ccc34)c(F)cc2Cl)nn1 + Cc1[nH]c2ccc(F)cc2c1-c1nc2c3cccnc3c3ncccc3c2[nH]1
Second compound 0.0316 µM
  IC50: 8.49 µM
Second compound 0.1 µM
  IC50: 7.3 µM
Second compound 0.316 µM
  IC50: > 10 µM
Second compound 1 µM
  IC50: 5.89 µM
Second compound 3.16 µM
  IC50: 3.91 µM
Second compound 10 µM
  IC50: 2.25 µM
[1]
  viability, T/C: 103%
[2]
  viability, T/C: 91.6%
[3]
  viability, T/C: 105%
[4]
  viability, T/C: 79.6%
[5]
  viability, T/C: 72.2%
[6]
  viability, T/C: 46.3%
[7]
  viability, T/C: 102%
[8]
  viability, T/C: 101%
[9]
  viability, T/C: 86.8%
[10]
  viability, T/C: 73.7%
[11]
  viability, T/C: 69.9%
[12]
  viability, T/C: 42.6%
[13]
  viability, T/C: 99.5%
[14]
  viability, T/C: 95.4%
[15]
  viability, T/C: 96.6%
[16]
  viability, T/C: 92.5%
[17]
  viability, T/C: 86.2%
[18]
  viability, T/C: 53%
[19]
  viability, T/C: 90.6%
[20]
  viability, T/C: 110%
[21]
  viability, T/C: 88.6%
[22]
  viability, T/C: 78.5%
[23]
  viability, T/C: 64.3%
[24]
  viability, T/C: 39.1%
[25]
  viability, T/C: 72.4%
[26]
  viability, T/C: 81.8%
[27]
  viability, T/C: 76.4%
[28]
  viability, T/C: 91.7%
[29]
  viability, T/C: 55.6%
[30]
  viability, T/C: 25.2%
[31]
  viability, T/C: 68%
[32]
  viability, T/C: 66.5%
[33]
  viability, T/C: 79%
[34]
  viability, T/C: 54.8%
[35]
  viability, T/C: 47%
[36]
  viability, T/C: 16%

## Cc1cccc(N(C)C(=O)C2C(O)CCN2c2nc(C)cc(C(F)(F)F)c2C#N)c1 (stereo not drawn) + Cc1[nH]c2ccc(F)cc2c1-c1nc2c3cccnc3c3ncccc3c2[nH]1
Second compound 0.0316 µM
  IC50: > 10 µM
Second compound 0.1 µM
  IC50: > 10 µM
Second compound 0.316 µM
  IC50: > 10 µM
Second compound 1 µM
  IC50: > 10 µM
Second compound 3.16 µM
  IC50: > 10 µM
Second compound 10 µM
  IC50: > 10 µM
[1]
  viability, T/C: 112%
[2]
  viability, T/C: 113%
[3]
  viability, T/C: 105%
[4]
  viability, T/C: 120%
[5]
  viability, T/C: 100%
[6]
  viability, T/C: 91.9%
[7]
  viability, T/C: 117%
[8]
  viability, T/C: 95.1%
[9]
  viability, T/C: 118%
[10]
  viability, T/C: 104%
[11]
  viability, T/C: 121%
[12]
  viability, T/C: 87.7%
[13]
  viability, T/C: 102%
[14]
  viability, T/C: 111%
[15]
  viability, T/C: 102%
[16]
  viability, T/C: 113%
[17]
  viability, T/C: 121%
[18]
  viability, T/C: 93.4%
[19]
  viability, T/C: 126%
[20]
  viability, T/C: 112%
[21]
  viability, T/C: 121%
[22]
  viability, T/C: 111%
[23]
  viability, T/C: 102%
[24]
  viability, T/C: 86.7%
[25]
  viability, T/C: 111%
[26]
  viability, T/C: 113%
[27]
  viability, T/C: 107%
[28]
  viability, T/C: 110%
[29]
  viability, T/C: 111%
[30]
  viability, T/C: 69%
[31]
  viability, T/C: 95.1%
[32]
  viability, T/C: 89.6%
[33]
  viability, T/C: 101%
[34]
  viability, T/C: 104%
[35]
  viability, T/C: 92.5%
[36]
  viability, T/C: 108%

## O=C(c1cc(Cc2n[nH]c(=O)c3ccccc23)ccc1F)N1CCN(C(=O)C2CC2)CC1 + Cc1[nH]c2ccc(F)cc2c1-c1nc2c3cccnc3c3ncccc3c2[nH]1
Second compound 0.0316 µM
  IC50: > 10 µM
Second compound 0.1 µM
  IC50: > 10 µM
Second compound 0.316 µM
  IC50: > 10 µM
Second compound 1 µM
  IC50: > 10 µM
Second compound 3.16 µM
  IC50: 8.8 µM
Second compound 10 µM
  IC50: > 10 µM
[1]
  viability, T/C: 97.2%
[2]
  viability, T/C: 92.2%
[3]
  viability, T/C: 91.8%
[4]
  viability, T/C: 91.6%
[5]
  viability, T/C: 80.6%
[6]
  viability, T/C: 69.5%
[7]
  viability, T/C: 108%
[8]
  viability, T/C: 116%
[9]
  viability, T/C: 93.4%
[10]
  viability, T/C: 94.8%
[11]
  viability, T/C: 92.8%
[12]
  viability, T/C: 65.3%
[13]
  viability, T/C: 101%
[14]
  viability, T/C: 111%
[15]
  viability, T/C: 101%
[16]
  viability, T/C: 103%
[17]
  viability, T/C: 92.8%
[18]
  viability, T/C: 52.1%
[19]
  viability, T/C: 109%
[20]
  viability, T/C: 112%
[21]
  viability, T/C: 91.5%
[22]
  viability, T/C: 93.8%
[23]
  viability, T/C: 90.3%
[24]
  viability, T/C: 60.2%
[25]
  viability, T/C: 81.6%
[26]
  viability, T/C: 82.9%
[27]
  viability, T/C: 72.8%
[28]
  viability, T/C: 75.2%
[29]
  viability, T/C: 69.6%
[30]
  viability, T/C: 47.2%
[31]
  viability, T/C: 105%
[32]
  viability, T/C: 84.4%
[33]
  viability, T/C: 96.3%
[34]
  viability, T/C: 81.8%
[35]
  viability, T/C: 98%
[36]
  viability, T/C: 58.6%
